According to US10786484B2, “Mono- or di-substituted indole derivatives as dengue viral replication inhibitors” (Janssen Pharmaceuticals, Inc., priority 2015, dated 2020):
Where two headings read alike, the source gives them in different places.

How the values were obtained:
[1] = tested on: DENV-2 16681 strain labeled with eGFP; assay: DENV-2 antiviral assay (eGFP fluorescence read-out in Vero cells); format: cell-based, Dengue virus; details: DENV-2 16681 eGFP, MOI 0.5, 3 days
Summary of the method: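 Vero cells (2500/well) pre-plated with compound (9-step 5-fold series), infected next day with eGFP-labeled DENV-2 16681 at MOI 0.5 in MEM with 2% FCS; 3 days at 37° C. eGFP fluorescence read at 488 nm; inhibition versus virus and cell controls, EC50 by linear interpolation.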

DENV-1 strain TC974#666 = assay: Tetravalent RT-qPCR assay Protocol A, serotype 1; format: cell-based; details: Dengue virus, DENV1, 72 h; RT-qPCR serotype 1 TC974#666, Vero cells, day 3
Description: (§1) The antiviral activity of the compounds of the invention was tested against DENV-1 strain TC974#666 (NCPV), DENV-2 strain 16681, DENV-3 strain H87 (NCPV) and DENV-4 strains H241 (NCPV) and EDEN (SG/06K2270DK1/2005; GenBank accession number QG398256) in a RT-qPCR assay. Therefore, Vero cells were infected with either DENV-1, or -2, or -3, or -4 in the presence or absence of test compounds. At day 3 post-infection, the cells were lysed and cell lysates were used to prepare cDNA of both a viral target (the 3′UTR of DENV; Table 2) and a cellular reference gene (β-actin, Table 2). Subsequently, a duplex real time PCR was performed on a Lightcycler480 instrument. The generated Cp value is inversely proportional to the amount of RNA expression of these targets. Inhibition of DENV replication by a test compound results in a shift of Cp's for the 3′UTR gene. On the other hand, if a test compound is toxic to the cells, a similar effect on β-actin expression will be observed. The comparative ΔΔCp method is used to calculate EC50, which is based on the relative gene expression of the target gene (3′UTR) normalized with the cellular housekeeping gene (β-actin). In addition, CC50 values are determined based on the Cp values acquired for the housekeeping gene β-actin.
(§2) The culture medium consisted of minimal essential medium supplemented with 2% of heat-inactivated fetal calf serum, 0.04% gentamycin (50 mg/mL) and 2 mM of L-glutamine. Vero cells, obtained from ECACC, were suspended in culture medium and 75 μL/well was added in 96-well plates (10000 cells/well), which already contain the antiviral compounds. […] In addition, each plate contains wells which are assigned as virus controls (containing cells and virus in the absence of compound) and cell controls (containing cells in the absence of virus and compound). Once the cells were added in the plates, the plates were incubated in a fully humidified incubator (37° C., 5% CO2) until the next day. Dengue viruses serotype-1, 2, 3 and 4 were diluted in order to obtain a Cp of ˜22-24 in the assay. Therefore, 25 μL of virus suspension, was added to all the wells containing test compound and to the wells assigned as virus control. In parallel, 25 μL of culture medium was added to the cell controls. Next, the plates were incubated for 3 days in a fully humidified incubator (37° C., 5% CO2). After 3 days, the supernatant was removed from the wells and the cells were washed twice with ice-cold PBS (−100 μL). The cell pellets within the 96-well plates were stored at −80° C. for at least 1 day. Next, RNA was extracted using the Cells-to-CT™ lysis kit, according to the manufacturer's guideline (Life Technologies). The cell lysates can be stored at −80° C. or immediately used in the reverse transcription step.
(§3) In preparation of the reverse transcription step, mix A (table 3A) was prepared and 7.57 μL/well was dispensed in a 96-well plate. After addition of 5 μL of the cell lysates, a five minute denaturation step at 75° C. was performed (table 3B). Afterwards, 7.43 μL of mix B was added (table 3C) and the reverse transcription step was initiated (table 3D) to generate cDNA.
(§4) Finally, a RT-qPCR mix was prepared, mix C (table 4A), and 22.02 μL/well was dispensed in 96-well LightCycler qPCR plates to which 3 μL of cDNA was added and the qPCR was performed according to the conditions in table 4B on a LightCycler 480.
(§5) Using the LightCycler software and an in-house LIMS system, dose response curves for each compound were calculated and the half maximal effective concentration (EC50) and the half maximal cytotoxic concentration (CC50) were determined (Tables 5-8).

DENV-2 strain 16681 = assay: Tetravalent RT-qPCR assay Protocol A, serotype 2; format: cell-based; details: Dengue virus, DENV2, 72 h; RT-qPCR serotype 2 16681, Vero cells, day 3
Description: as §1, §2, §3, §4, §5

DENV-3 strain H87 = assay: Tetravalent RT-qPCR assay Protocol A, serotype 3; format: cell-based; details: Dengue virus, DENV3, 72 h; RT-qPCR serotype 3 H87, Vero cells, day 3
Description: as §1, §2, §3, §4, §5

DENV-4 strain H241 = assay: Tetravalent RT-qPCR assay Protocol A, serotype 4 H241; format: cell-based; details: Dengue virus, DENV4, 72 h; RT-qPCR serotype 4 H241, Vero cells, day 3
Description: as §1, §2, §3, §4, §5

[2] = tested on: DENV-4 strain EDEN (SG/06K2270DK1/2005); assay: Tetravalent RT-qPCR assay Protocol A, serotype 4 EDEN; format: cell-based; details: Dengue virus, DENV4, 72 h; RT-qPCR serotype 4 EDEN, Vero cells, day 3
Description: as §1, §2, §3, §4, §5

in vitro = format: cell-based; details: African green monkey, CC50
Description: as §1, §2, §5

Vero cells [3] = details: African green monkey
Vero cells [4] = assay: in vitro; format: cell-based; details: African green monkey, 3 days
Description: as §1, §2, §5

SMILES | EC50 [1] [nM] | EC50 (DENV-1 strain TC974#666) [nM] | EC50 (DENV-2 strain 16681) [nM] | EC50 (DENV-3 strain H87) [nM] | EC50 (DENV-4 strain H241) [nM] | EC50 [2] [nM] | CC50 at 3 days (in vitro) [nM] | CC50 (Vero cells [3]) [nM] | CC50 (Vero cells [4]) [nM]
COc1cc(NC(C(=O)c2c[nH]c3cc(F)c(F)cc23)c2ccc(F)cc2OCCO)cc(S(C)(=O)=O)c1 (single isomer, unassigned) [Compound 5A, 1-(5,6-difluoro-1H-indol-3-yl)-2-(4-fluoro-2-(2-hydroxyethoxy)phenyl)-2-((3-methoxy-5-(methylsulfonyl)phenyl)-amino)ethanone] | 0.51 | 4.1 | 0.71 | 61 | 180 | 3.7 | > 2500 | 3400 | –
COc1cc(NC(C(=O)c2c[nH]c3cc(OC)c(OC(F)(F)F)cc23)c2ccc(F)cc2OCCO)cc(S(C)(=O)=O)c1 (single isomer, unassigned) [Compound 11B, 2-(4-fluoro-2-(2-hydroxyethoxy)phenyl)-2-((3-methoxy-5-(methyl-sulfonyl)phenyl)amino)-1-(6-methoxy-5-(trifluoromethoxy)-1H-indol-3-yl)ethanone] | 0.2 | 0.6 | 0.14 | 7.3 | 34 | – | > 2500 | 2400 | > 2500
